Assay results: PubChem BioAssay AID1963867 (Molecular Pharmacology Branch, DTP, NCI, 2024)

System: KRAS-mutant PDC tumor spheroid with HUVEC/MSC, viability
Assay: Anticancer human tumor 327498-153-R-J2-PDC patient-derived uterine carcinosarcoma cell line growth inhibition [KRAS2]
Details: for IC50: curve of first compound; for viability, T/C: stronger effect = lower value
Procedure, shortened: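 KRAS-mutant tumor cells were grown as spheroids with HUVEC endothelial cells and human MSCs as stroma. Targeted agents were tested alone and with KRAS pathway inhibitors. Doses started at or near clinical Cmax, or 10 microM, descending half-log.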

[1] = second compound 0.0316 µM, first compound 0.0316 µM
[2] = second compound 0.0316 µM, first compound 0.1 µM
[3] = second compound 0.0316 µM, first compound 0.316 µM
[4] = second compound 0.0316 µM, first compound 1 µM
[5] = second compound 0.0316 µM, first compound 3.16 µM
[6] = second compound 0.1 µM, first compound 0.0316 µM
[7] = second compound 0.1 µM, first compound 0.1 µM
[8] = second compound 0.1 µM, first compound 0.316 µM
[9] = second compound 0.1 µM, first compound 1 µM
[10] = second compound 0.1 µM, first compound 3.16 µM
[11] = second compound 0.316 µM, first compound 0.0316 µM
[12] = second compound 0.316 µM, first compound 0.1 µM
[13] = second compound 0.316 µM, first compound 0.316 µM
[14] = second compound 0.316 µM, first compound 1 µM
[15] = second compound 0.316 µM, first compound 3.16 µM
[16] = second compound 1 µM, first compound 0.0316 µM
[17] = second compound 1 µM, first compound 0.1 µM
[18] = second compound 1 µM, first compound 0.316 µM
[19] = second compound 1 µM, first compound 1 µM
[20] = second compound 1 µM, first compound 3.16 µM
[21] = second compound 3.16 µM, first compound 0.0316 µM
[22] = second compound 3.16 µM, first compound 0.1 µM
[23] = second compound 3.16 µM, first compound 0.316 µM
[24] = second compound 3.16 µM, first compound 1 µM
[25] = second compound 3.16 µM, first compound 3.16 µM
[26] = second compound 0.0316 µM, first compound 10 µM
[27] = second compound 0.1 µM, first compound 10 µM
[28] = second compound 0.316 µM, first compound 10 µM
[29] = second compound 1 µM, first compound 10 µM
[30] = second compound 3.16 µM, first compound 10 µM
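Note: spheroids exposed to agents for seven days before reading.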
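Throughout, for viability, T/C: 100% = DMSO vehicle wells so lower means fewer viable cells.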

SMILES | IC50 (second compound 0.0316 µM) | IC50 (second compound 0.1 µM) | IC50 (second compound 0.316 µM) | IC50 (second compound 1 µM) | IC50 (second compound 3.16 µM) | viability, T/C [1] | viability, T/C [2] | viability, T/C [3] | viability, T/C [4] | viability, T/C [5] | viability, T/C [6] | viability, T/C [7] | viability, T/C [8] | viability, T/C [9] | viability, T/C [10] | viability, T/C [11] | viability, T/C [12] | viability, T/C [13] | viability, T/C [14] | viability, T/C [15] | also measured
CC1COCCN1c1cc(-c2ccnn2C)c2ccnc(-c3ccn[nH]3)c2n1 (stereo not given) + C=CC(=O)N1CCN(c2nc(OCC3CCCN3C)nc3c2CCN(c2cccc4cccc(C)c24)C3)CC1CC#N | 0.0125 µM | 0.01 µM | < 0.01 µM | < 0.01 µM | < 0.01 µM | 26.6% | 8.55% | 6.25% | 6.05% | 5.16% | 21% | 9.02% | 5.92% | 6.34% | 5.2% | 21.6% | 7.42% | 4.41% | 4.61% | 4.35% | viability, T/C (second compound 0.0316 µM, first compound 0.01 µM): 55.6%; viability, T/C (second compound 0.1 µM, first compound 0.01 µM): 50.2%; viability, T/C (second compound 0.316 µM, first compound 0.01 µM): 35.1%; viability, T/C (second compound 1 µM, first compound 0.01 µM): 29.9%; viability, T/C [16]: 14.6%; viability, T/C [17]: 3.87%; viability, T/C [18]: 3.63%; viability, T/C [19]: 4.58%; viability, T/C [20]: 3.92%; viability, T/C (second compound 3.16 µM, first compound 0.01 µM): 0.17%; viability, T/C [21]: 0.63%; viability, T/C [22]: 0.14%; viability, T/C [23]: 0.14%; viability, T/C [24]: 0.29%; viability, T/C [25]: 0.22%
CC1OCC2(CCN(c3cnc(Sc4ccnc(N)c4Cl)c(N)n3)CC2)C1N (stereo not given) + C=CC(=O)N1CCN(c2nc(OCC3CCCN3C)nc3c2CCN(c2cccc4cccc(C)c24)C3)CC1CC#N | < 0.0316 µM | < 0.0316 µM | < 0.0316 µM | < 0.0316 µM | < 0.0316 µM | 44% | 40.3% | 23.9% | 22.6% | 19.6% | 41.2% | 32.9% | 24.9% | 21.2% | 16.2% | 40.6% | 30.9% | 24.4% | 20.4% | 16.4% | viability, T/C [26]: 14.9%; viability, T/C [27]: 16.4%; viability, T/C [28]: 15.3%; viability, T/C [16]: 33%; viability, T/C [17]: 24.2%; viability, T/C [18]: 23.1%; viability, T/C [19]: 19.3%; viability, T/C [20]: 14.3%; viability, T/C [29]: 13.5%; viability, T/C [21]: 0.14%; viability, T/C [22]: 0.15%; viability, T/C [23]: 0.14%; viability, T/C [24]: 0.13%; viability, T/C [25]: 0.15%; viability, T/C [30]: 0.24%
Cn1nccc1Nc1nccc(-c2cc3c(s2)C(C)(C)N(CCN2CCOCC2)C3=O)n1 + C=CC(=O)N1CCN(c2nc(OCC3CCCN3C)nc3c2CCN(c2cccc4cccc(C)c24)C3)CC1CC#N | 0.422 µM | 0.227 µM | < 0.0316 µM | < 0.0316 µM | < 0.0316 µM | 62.5% | 54.6% | 55.6% | 25.2% | 40.4% | 60.2% | 62.1% | 45.5% | 33% | 36.2% | 42.9% | 45% | 37.6% | 33.6% | 31.1% | viability, T/C [26]: 34.7%; viability, T/C [27]: 28.8%; viability, T/C [28]: 27.6%; viability, T/C [16]: 39.6%; viability, T/C [17]: 31.1%; viability, T/C [18]: 29.7%; viability, T/C [19]: 33.3%; viability, T/C [20]: 30.3%; viability, T/C [29]: 21.3%; viability, T/C [21]: 0.15%; viability, T/C [22]: 0.17%; viability, T/C [23]: 0.15%; viability, T/C [24]: 0.16%; viability, T/C [25]: 0.54%; viability, T/C [30]: 0.21%
